According to PubChem BioAssay (NCI):
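Each compound was tested at five concentrations against cells in 96-well plates for 48 hours. GI50: concentration for 50% inhibition of growth. Definition used: TGI = concentration required for complete inhibition of growth.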

Columns and labels:
Assay in all cases: NCI tumour cell line growth inhibition, 48 h
NCI/ADR-RES ovarian = system: NCI/ADR-RES ovarian
HOP-62 NSCLC = system: HOP-62 NSCLC
SW-620 colon = system: SW-620 colon
NCI-H23 lung = system: NCI-H23 lung
UO-31 renal = system: UO-31 renal
LOX IMVI melanoma = system: LOX IMVI melanoma
SF-539 CNS = system: SF-539 CNS
BT-549 breast = system: BT-549 breast

SMILES | GI50 (NCI/ADR-RES ovarian) [µM] | TGI (NCI/ADR-RES ovarian) [µM] | GI50 (HOP-62 NSCLC) [µM] | TGI (HOP-62 NSCLC) [µM] | GI50 (SW-620 colon) [µM] | TGI (SW-620 colon) [µM] | GI50 (NCI-H23 lung) [µM] | TGI (NCI-H23 lung) [µM] | GI50 (UO-31 renal) [µM] | TGI (UO-31 renal) [µM] | GI50 (LOX IMVI melanoma) [nM] | TGI (LOX IMVI melanoma) [µM] | GI50 (SF-539 CNS) [nM] | TGI (SF-539 CNS) [µM] | GI50 (BT-549 breast) [nM] | TGI (BT-549 breast) [µM]
O=C(Nc1cccc(-c2nc3ccccc3[nH]2)c1)c1cccc(NC(=O)c2ccco2)c1 | 7.92 | 66 | 2.06 | 4.3 | 3.19 | 10.8 | 2.15 | 4.94 | 3.24 | 11.8 | 1930 | 3.88 | 1490 | 2.88 | 1850 | 3.92
C[C@@H](Oc1cc(-c2cnn(C3CC4(CCNCC4)C3)c2)cnc1N)c1c(F)ccc(Cl)c1Cl | 6.61 | 21.2 | 1.25 | 5.9 | 0.537 | 2.33 | 1.09 | 11.4 | 1.89 | 4.28 | 1220 | 2.56 | 1510 | 2.96 | 1750 | 3.78
C=C1C(=O)O[C@H]2[C@H]1CC/C(Cn1cc(Cn3ccc4cc(Cl)ccc43)nn1)=C\CC[C@@]1(C)O[C@@H]21 | 2.54 | 9.09 | 4.9 | 20.1 | 1.13 | 2.78 | 1.99 | 4.46 | 1.09 | 2.29 | 1310 | 2.88 | 1570 | 2.97 | 1610 | 3.3
COc1ccc2c(c1)C(=O)c1c-2c(N2CCN(C(=O)CN(C)C)CC2)nc2ccccc12 | 19.7 | 57.1 | 13.6 | 29.2 | 10.3 | 26.3 | – | – | 10.4 | 26 | 12300 | 33.6 | 15100 | 30.3 | 14500 | 33.5
COc1cc2c3c(n(CCCn4ccnc4)c(=O)c2cc1OC)-c1ccccc1C3=O | 0.223 | 1.86 | < 0.0162 | 0.141 | < 0.0206 | – | < 0.0282 | 0.0695 | < 0.0141 | 0.0551 | < 12.4 | 0.0385 | < 37.3 | 0.441 | 62.3 | 30.7
O=C(/C=C/c1ccc2c(c1)OCO2)c1ccccc1 | 20.6 | 62.3 | 23.9 | 80.9 | 3.72 | 14.5 | 17.4 | 38.6 | 4.19 | 18.9 | 12600 | 25.9 | 20500 | 54.5 | – | –
O=[N+]([O-])c1ccccc1/C=C/C=C1c2ccccc2-c2ccccc21 | > 100 | > 100 | > 100 | > 100 | > 100 | > 100 | > 100 | > 100 | > 100 | > 100 | > 100000 | > 100 | > 100000 | > 100 | > 100000 | > 100
Cc1cccc(Oc2ccc(Nc3ncnc4ccc(NC(=O)CN5CCN(C)CC5)cc34)cc2Cl)c1 | 1.73 | 4.24 | – | – | 1.69 | 3.27 | 1.74 | 3.49 | 1.1 | 2.35 | 1700 | 3.18 | 1730 | 3.19 | 1450 | 2.81
O=C1OC2(c3ccccc31)c1cc(I)c(O)c(I)c1Oc1c2cc(I)c(O)c1I | – | > 100 | – | > 100 | – | > 100 | – | > 100 | – | > 100 | – | > 100 | – | > 100 | – | > 100
CC1=C([Se]CC(OC(=O)[C@@H](CSSC(C)(C)C)NC(=O)C(C)(C)C)C(=O)NCCCCCC(=O)OCc2ccccc2)C(=O)c2ccccc2C1=O (some centres not stated) | 3.4 | 11.4 | 1.01 | 3.03 | 2.31 | 5.2 | 2.4 | 7.1 | 1.47 | 3.16 | 2590 | 7.62 | 1900 | 3.36 | 1760 | 3.15
CC(=O)NC(Cc1c[nH]c2ccccc12)C(=O)O (configuration not stated) | – | > 100 | – | > 100 | – | > 100 | – | > 100 | – | > 100 | – | > 100 | – | – | – | > 100
O=C(CSc1nc2sc3c(c2c(=O)n1-c1ccccc1)CCCCC3)N/N=C/c1ccc(F)cc1 | 2.25 | 6.72 | 2.38 | 7.39 | 3.14 | 33.6 | 3.29 | 13.9 | 3.77 | > 100 | 2350 | 14.8 | 1850 | 3.53 | 3660 | 17.8
O=C1C=CC(=O)N1c1ccc2c(c1)Cc1cc(NC(=O)C(F)(F)F)ccc1-2 | – | > 75.7 | – | 50.7 | – | 25.8 | – | 32.2 | – | 28.4 | – | 32.7 | – | 32.8 | – | 31.6
COc1cc(C(=O)O)ccc1NC(=O)[C@@H]1N[C@@H](CC(C)(C)C)[C@](C#N)(c2ccc(Cl)cc2F)[C@H]1c1cccc(Cl)c1F | 6.83 | 25.2 | 6.04 | 17.4 | 3.02 | > 26.3 | 5.47 | 19.5 | 0.0414 | 5.03 | 148 | 6.84 | 3630 | 11.5 | 2760 | 7.11
N#Cc1c(SCc2ccccc2)nc2[nH]c(=S)[nH]c(=S)c2c1-c1ccco1 | 26.6 | > 100 | 58.4 | > 100 | 33.9 | > 100 | 28 | > 100 | 61.2 | > 100 | > 100000 | > 100 | 31700 | > 100 | 21000 | > 100
O=C(c1cccs1)c1c(C(F)(F)F)n([O-])c2cc(C(F)(F)F)ccc2[n+]1=O | 0.216 | 0.585 | 0.174 | 0.337 | 0.14 | 0.304 | 0.348 | 1.27 | 0.315 | 0.656 | 71.4 | 0.17 | 195 | 0.409 | 188 | 0.367
COc1cc(/C=C2\C[C@H]3[C@@H]4CC=C5C[C@@H](OC(C)=O)CC[C@]5(C)[C@H]4CC[C@]3(C)[C@H]2OC(C)=O)ccc1OCCCn1ccnc1 | 11.3 | 28.8 | 11.3 | 19.5 | 10.3 | > 30.1 | 9.94 | 21.1 | 12.7 | > 34 | 7460 | 14.9 | 4720 | 12.5 | 5680 | 13.6

SMILES | GI50 (NCI/ADR-RES ovarian) [µM] | TGI (NCI/ADR-RES ovarian) [µM] | GI50 (HOP-62 NSCLC) [µM] | TGI (HOP-62 NSCLC) [µM] | GI50 (SW-620 colon) [µM] | TGI (SW-620 colon) [µM] | GI50 (NCI-H23 lung) [µM] | TGI (NCI-H23 lung) [µM] | GI50 (UO-31 renal) [µM] | TGI (UO-31 renal) [µM] | GI50 (LOX IMVI melanoma) [nM] | TGI (LOX IMVI melanoma) [µM] | GI50 (SF-539 CNS) [nM] | TGI (SF-539 CNS) [µM] | GI50 (BT-549 breast) [nM] | TGI (BT-549 breast) [µM]
CCN(CC)CCCC(C)N/C(c1cccc(OC)c1)=c1\c(=O)[nH]n(-c2c3ccccc3nc3ccccc23)c(=O)\c1=C(/NC(C)CCCN(CC)CC)c1cccc(OC)c1 (configuration not stated) | 1.79 | 8.91 | 1.47 | 5.03 | 0.528 | 6.82 | 2.02 | 4.69 | 1.31 | 3.61 | – | – | 1670 | 3.21 | 2150 | 4.85
CCOC(=O)c1ccc(C(O)CC(=O)OC(C)(C)C)[nH]1 (configuration not stated) | 41 | > 100 | 45.1 | > 100 | 50.1 | > 100 | 44.4 | > 100 | 38.5 | > 100 | 25100 | 86.8 | – | – | – | –
COc1ccc(C(=O)O)c2c(=O)c3ccccc3[nH]c12 | – | – | – | > 31.6 | – | > 100 | – | > 100 | – | > 100 | – | > 100 | – | > 100 | – | –
N#Cc1c(N)nc(N2CCOCC2)c(C#N)c1-c1cccc(O)c1 | > 100 | > 100 | 78.3 | > 100 | > 100 | > 100 | 54.8 | > 100 | – | – | > 100000 | > 100 | > 100000 | > 100 | 89900 | > 100
CCCCCCCCO/N=C\c1c2c(O)c3c(O)c(C)c4c(c3c1O)C(=O)C(C)(O/C=C\C(OC)C(C)C(OC(C)=O)C(C)C(O)C(C)C(O)C(C)/C=C\C=C(\C)C(=O)N2)O4 (configuration not stated) | 1.93 | 6.99 | 1.63 | 5.78 | 1.77 | 6.09 | 1.74 | 6.55 | – | – | 1530 | 5.6 | 2740 | 9.75 | – | –
CCOC(=O)CCc1c(C)c2ccc(O)cc2oc1=O | – | > 100 | – | > 100 | – | > 100 | – | > 100 | – | – | – | > 100 | – | > 100 | – | > 100
CC1(C)CC2=NOS3=C2C(=NO3)C1c1ccccn1 (configuration not stated) | – | > 100 | – | > 100 | – | > 100 | – | > 100 | – | > 100 | – | > 100 | – | > 100 | – | –
CC(=O)[CH-]C(C)=O.CC(=O)[CH-]C(C)=O.CC(=O)[CH-]C(C)=O.[Cl-].[Hf+4] | – | – | > 100 | > 100 | > 100 | > 100 | > 100 | > 100 | > 100 | > 100 | > 100000 | > 100 | > 100000 | > 100 | – | –
CCN(CC)CCCN1C(=O)c2c(c(C)c3c(oc4cc(O)ccc43)c2C)C1=O | – | – | 1.73 | 3.29 | 1.73 | 3.25 | 1.85 | 3.72 | 1.66 | 3.09 | 1790 | 3.3 | 1770 | 3.18 | 14200 | 29.6
COc1cc(/C=C/C(=O)CC(=O)/C=C/c2ccc(OC(=O)CCNC34CC5CC(CC(C5)C3)C4)c(OC)c2)ccc1OC(=O)CCNC12CC3CC(CC(C3)C1)C2 | 8 | 49.9 | 3.99 | 16.6 | 2.43 | 6.03 | – | – | 3.45 | 14.8 | 1960 | 4.14 | 2090 | 4.81 | 2400 | 7.67
Cc1cc(Nc2nc(N3CCOCC3)nc3ccccc23)n[nH]1 | 18.2 | > 100 | 6.22 | > 100 | 4.81 | 56.8 | – | – | 1.38 | 11.2 | 4350 | 21.2 | 4270 | 16.6 | 7880 | 46.7
CCCN1C(=O)/C(=C/c2ccc(O)cc2)SC1=Nc1ccccc1 | 20.4 | 36.4 | 21.2 | 37.9 | 37.8 | > 100 | 34.1 | 93 | 38.3 | > 100 | 14700 | 29.3 | – | – | – | –
O=C(Nc1ccc(N=Nc2ccccc2)cc1)Sc1ccccc1C(=O)O | – | – | – | > 100 | – | > 100 | – | > 100 | – | > 100 | – | > 100 | – | > 100 | – | –
C[C@]12CC[C@H]3[C@@H](CC=C4C[C@@H](O)CC[C@@]43C)[C@@H]1C/C(=C\c1cccc(OCCCn3ccnc3)c1)[C@@H]2O | 20.4 | 99.7 | 15.1 | 32.7 | 10.6 | 26.8 | 13 | 30.1 | 13 | 28.3 | 15700 | 39.6 | 8010 | 23.7 | – | –
COc1cc2c(cc1OCCCCCN1CCN(c3cc(=O)oc4c(C)c(OC)ccc34)CC1)N=C[C@@H]1CCCN1C2=O | 1.55 | 8.25 | < 0.0107 | 0.0301 | < 0.0108 | 4.26 | < 0.0122 | 0.137 | 0.014 | 0.0383 | – | – | < 11.2 | 0.128 | < 11.9 | 0.155
COc1ccc2c(c1)/C(=C/c1c(-c3ccc(C)cc3)nc3sc(C)cn13)C(=O)N2 | – | – | 19.7 | > 100 | 16.8 | > 100 | 6.86 | 32.5 | 10.5 | > 100 | – | – | 20300 | > 100 | – | –
